Test results taken from patent US5641800A, “1H-indole-1-functional sPLA2 inhibitors” (Eli Lilly and Company, priority 1995, dated 1997).

Tests used:
[1] = molecular target: T1, human secreted PLA2 (Homo sapiens, UniProt P14555); assay: Chromogenic assay, inhibition of recombinant human secreted phospholipase A2; format: biochemical; conditions: recombinant human sPLA2, diheptanoyl thio-PC substrate, pH 7.5, 40° C., 30 minutes, 405 nm; ± mean deviation (3-4 tests)
T1 sequence (P14555 21-144): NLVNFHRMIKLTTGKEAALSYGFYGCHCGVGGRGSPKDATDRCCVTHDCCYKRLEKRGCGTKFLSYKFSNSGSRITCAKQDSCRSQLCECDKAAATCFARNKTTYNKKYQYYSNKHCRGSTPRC
Description: The following chromogenic assay procedure was used to identify and evaluate inhibitors of recombinant human secreted phospholipase A2. The assay described herein has been adapted for high volume screening using 96 well microtiter plates. A general description of this assay method is found in the article, "Analysis of Human Synovial Fluid Phospholipase A2 on Short Chain Phosphatidylcholine-Mixed Micelles: Development of a Spectrophotometric Assay Suitable for a Microtiterplate Reader", by Laure J. Reynolds, Lori L. Hughes, and Edward A Dennis, Analytical Biochemistry,204, pp. 190-197, 1992 (the disclosure of which is incorporated herein by reference):
Bovine Serum Albumin (fatty acid free) (1 g/L) (Sigma A-7030, product of Sigma Chemical Co. St. Louis Mo., USA)
racemic 1,2-bis(heptanoylthio)-1,2-dideoxy-sn-glycero-3-phosphorylcholine
A measured volume of racemic dipheptanoyl thio PC supplied in chloroform at a concentration of 100 mg/ml is taken to dryness and redissolved in 10 millimolar TRITON X 100™ nonionic detergent aqueous solution. Reaction Buff added to the solution, then DTNB to give the Reaction Mixture.
The reaction mixture thus obtained contains […] diheptanoly thio-PC substrate, 0.29 mm Triton X-100™ detergent, and 0.12 mm DTMB in a buffered aqueous solution at pH 7.5.
1. Add 0.2 ml reaction mixture to all wells;
2. Add 10 ul test compound (or solvent blank) to appropriate wells, mix 20 seconds;
3. Add 50 nanograms of sPLA2 (10 microliters) to appropriate wells;
4. Incubate plate at 40° C. for 30 minutes;
5. Read absorbance of wells at 405 nanometers with an automatic plate reader.
All compounds were tested in triplicate. Typically, compounds were tested am a final concentration of 5 ug/ml. […] Lack of color development at 405 nanometers evidenced inhibition. Compounds initially found to be active were reassayed to confirm their activity and, if sufficiently active, IC50 values were determined. […] In all cases, % inhibition measured at 405 nanometers generated by enzyme reactions containing inhibitors relative to the uninhibited control reactions was determined. Each sample was titrated in triplicate and result values were averaged for plotting and calculation of IC50 values. IC50 were determined by plotting log concentration versus inhibition values in the range from 10-90% inhibition.

[2] = molecular target: T2, Human Secreted Phospholipase A2 (Homo sapiens, UniProt P14555); assay: Human secreted phospholipase A2 inhibition tests on guinea pig lung tissue (pleural strip contraction); format: tissue-based; conditions: guinea pig lung pleural strips, sPLA2-induced contraction, 37° C., compound added 30 min. prior; Schild slope 1, apparent KB = dissociation constant of the inhibitor; read-out: Tissue test secreted PLA2, Apparent KB
T2 sequence (P14555 21-144): T1 sequence (P14555 21-144)
Description: Male Hartley strain guinea pigs (500-700 g) were killed by cervical dislocation and their heart and lungs removed intact and placed in aerated (95% 02 :5% CO2) Krebs buffer. Dorsal pleural strips (4×1×25 mm) were dissected from intact parenchymal segments (8×4×25 mm) cut parallel to the outer edge of the lower lung lobes. Two adjacent pleural strips, obtained from a single lobe and representing a single tissue sample, were tied at either end and independently attached to a metal support rod. One rod was attached to a Grass force-displacement transducer (Model FTO3C, product of Grass Medical Instruments Co., Quincy, Mass., USA). […] All tissues were placed in 10 ml jacketed tissue baths maintained at 37° C. The tissue baths were continuously aerated and contained a modified Krebs solution of the following composition (millimolar) NaCl, 118.2; KCl, 4.6; CaCl2.2H2 O, 2.5; MgSO4.7H2 O, 1.2; NaHCO3, 24.8; KH2 PO4, 1.0; and dextrose, 10.0. Pleural strips from the opposite lobes of the lung were used for paired experiments.
Initially tissues were challenged 3 times with KCl (40 mM) to test tissue viability and to obtain a consistent response. After recording the maximal response to KCl, the Elssues were washed and allowed to return to baseline before the next challenge. Cumulative concentration-response curves were obtained from pleural strips by increasing the agonist concentration (sPLA2) in the tissue bath by half-log10 increments while the previous concentration remained in contact with the tissues (Ref.1, supra.) Agonist concentration was increased after reaching the plateau of the contraction elicited by the preceding concentration. One concentration-response curve was obtained from each tissue. To minimize variability between tissues obtained from different animals, contractile responses were expressed as a percentage of the maximal response obtained with the final KCl challenge. […]
Data from different experiments were pooled and presented as a percentage of the maximal KCl responses (mean±S.E.). To estimate the drug induced rightward shifts in the concentration response curves, the curves were analyzed simultaneously using statistical nonlinear modeling methods similar to those described by Waud (1976), Equation 26, p. […] The Schild slope was determined to be 1, using statistical nonlinear modeling methods similar to those described by Waud 1976), Equation 27, p. […]
To estimate the drug-induced suppression of the maximal responses, sPLA2 responses (10 ug/ml) were determined in the absence and presence of drug, and percent suppression was calculated for each pair of tissues. […]

IC50 [1] [nM] | Kb [2] [nM] | SMILES
13 ± 2 | 390 ± 120 | Cc1c(Cc2ccccc2)c2cccc(OCC(=O)O)c2n1CC(N)=O [Example 1, [[1-(2-Amino-2-oxoethyl)-2-methyl-3-(phenylmethyl)-1H-indol-7-yl]oxy]acetic acid]
33 ± 3 | 1470 ± 340 | CCc1c(Cc2ccccc2)c2ccc(OCCCC(=O)O)cc2n1CC(N)=O [Example 2, 4-[[1-(2-amino-2-oxoethyl)-2-ethyl-3-(phenylmethyl)-1H-indol-6-yl]oxy]butyric acid]
35 ± 8 | 415 ± 51 | CCc1c(Cc2ccccc2)c2ccc(OCCCP(=O)(O)O)cc2n1CC(N)=O [Example 3, [3-[[1-(2-amino-2-oxoethyl)-2-ethyl-3-(phenylmethyl)-1H-indol-6-yl]oxy]propyl]phosphonic acid]
200 ± 90 | 1670 ± 280 | Cc1c(Cc2ccccc2)c2cccc(OCC(=O)O)c2n1CC(=O)NN [Example 4, [[1-(2-hydrazino-2-oxoethyl)-2-methyl-3-(phenylmethyl)-1H-indol-7-yl]oxy]acetic acid]
